This test concerns the target T1, Xanthine Oxidase (Bos taurus, UniProt P80457).
T1 construct: Xanthine Oxidase was obtained from Bovine butter milk; from tissue; host or cells: bovine buttermilk
Nature of the test: Xanthine oxidase inhibition assay (uric acid quantitated by spectrophotometer, 165 μM xanthine substrate). Format: biochemical, Bovine. The conditions noted are these: Allopurinol comparison; concentration not given. The text has this:
All other results are expressed in terms of that assay's quantitation method. For primary assays, only the lowest concentration with a significant response judged by the assays' criteria, is shown in this summary.
Methods employed in this study were adapted from the scientific literature to maximize reliability and reproducibility.

SMILES strings stand for the structures.

T1 sequence (P80457 whole entry): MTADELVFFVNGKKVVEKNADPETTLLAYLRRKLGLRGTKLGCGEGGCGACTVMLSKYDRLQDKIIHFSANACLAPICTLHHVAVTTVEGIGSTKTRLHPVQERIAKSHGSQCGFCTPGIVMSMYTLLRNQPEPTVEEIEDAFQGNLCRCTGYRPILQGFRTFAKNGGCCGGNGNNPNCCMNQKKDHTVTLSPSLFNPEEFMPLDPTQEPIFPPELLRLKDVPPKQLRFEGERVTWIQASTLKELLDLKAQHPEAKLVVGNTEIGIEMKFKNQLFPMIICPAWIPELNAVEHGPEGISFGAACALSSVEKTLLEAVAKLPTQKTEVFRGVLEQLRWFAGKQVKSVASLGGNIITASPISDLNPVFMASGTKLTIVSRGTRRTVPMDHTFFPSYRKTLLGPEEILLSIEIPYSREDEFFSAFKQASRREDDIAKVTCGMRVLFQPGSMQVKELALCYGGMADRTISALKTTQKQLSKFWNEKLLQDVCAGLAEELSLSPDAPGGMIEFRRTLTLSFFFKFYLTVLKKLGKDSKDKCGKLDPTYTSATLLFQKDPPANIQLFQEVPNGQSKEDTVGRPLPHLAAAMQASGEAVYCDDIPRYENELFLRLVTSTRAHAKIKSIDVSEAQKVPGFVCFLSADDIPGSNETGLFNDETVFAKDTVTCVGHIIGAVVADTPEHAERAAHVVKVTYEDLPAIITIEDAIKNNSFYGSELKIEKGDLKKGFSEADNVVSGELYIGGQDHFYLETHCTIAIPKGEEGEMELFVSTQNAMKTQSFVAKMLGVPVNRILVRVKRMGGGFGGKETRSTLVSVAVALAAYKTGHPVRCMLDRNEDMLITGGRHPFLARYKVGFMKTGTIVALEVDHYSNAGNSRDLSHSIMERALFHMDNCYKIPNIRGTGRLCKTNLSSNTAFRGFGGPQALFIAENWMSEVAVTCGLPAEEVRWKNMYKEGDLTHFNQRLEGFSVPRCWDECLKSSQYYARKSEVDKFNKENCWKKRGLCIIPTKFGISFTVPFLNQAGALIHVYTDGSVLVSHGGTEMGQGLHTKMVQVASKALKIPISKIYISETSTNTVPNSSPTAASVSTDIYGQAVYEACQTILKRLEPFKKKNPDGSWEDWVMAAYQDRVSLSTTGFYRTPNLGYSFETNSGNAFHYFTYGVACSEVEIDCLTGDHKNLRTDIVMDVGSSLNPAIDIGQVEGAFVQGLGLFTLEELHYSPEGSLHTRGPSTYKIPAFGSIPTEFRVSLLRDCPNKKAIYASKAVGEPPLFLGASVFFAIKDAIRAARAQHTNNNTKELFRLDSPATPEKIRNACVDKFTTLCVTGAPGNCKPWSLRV

`Oc1ncnc2[nH]ncc12` [Allopurinol]: the “percent inhibition of xanthine oxidase” value is listed as “approximately 90%”.

For the origin of these results see US20060141076A1, “Morinda citrifolia based compositions and methods for inhibiting xanthine oxidase” (priority 2004, published 2006).
